Literature values as cited in patent US5585490A, “Certain cycloalkyl and azacycloalkyl pyrrolopyrimidines; a new class of GABA brain receptor ligands” (priority 1993, dated 1996).

System: benzodiazepine binding site
Details: Tallman et al., 1978, Nature, 274: 383-85

SMILES: CN1CCc2cc3c(cc2C1C1OC(=O)c2c1ccc1c2OCO1)OCO3 (single isomer, unassigned; (+)) [(+) bicuculline]
- Enhancement of benzodiazepine binding by GABA agonists is blocked: blocked

SMILES: CN1CCc2cc3c(cc2C1C1OC(=O)c2c1ccc1c2OCO1)OCO3 (single isomer, unassigned; (-)) [(-) bicuculline]
- Enhancement of benzodiazepine binding by GABA agonists is blocked: much less active
